Assay results taken from the supplement of paper PMC10307832.

Key:
Assay in all cases: relative viability (nuclei count vs DMSO), 5 days (fraction); higher = more cells survive
BAM7 = compound: CCOC1=CC=CC=C1N=NC2=C(NN(C2=O)C3=NC(=CS3)C4=CC=CC=C4)C [BAM7]
Outline: (§1)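 Viability is treated-well nuclei as a fraction of vehicle-well nuclei, reported as the median across plates. Before counting, lung cancer cell lines were kept overnight at 37 °C in 1536-well plates, pinned with five √10-spaced library-drug doses on vehicle-anchored plates, and left 5 days without medium change, then fixed, permeabilised and Hoechst-stained in one step, imaged at 4× and counted by MetaXpress. A plate passed only if control CV was below 25% and at least one doubling occurred.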

[1] = compound: CCn1c(-c2nonc2N)nc2c(C#CC(C)(C)O)ncc(OC[C@H]3CCCNC3)c21
Outline: as §1

[2] = compound: CCn1c(-c2nonc2N)nc2c(C#CC(C)(C)O)ncc(OC[C@H]3CCCNC3)c21 + Nc1nc2[nH]cc(CCc3ccc(C(=O)N[C@@H](CCC(=O)O)C(=O)O)cc3)c2c(=O)[nH]1 [Pemetrexed] (partner 0.2 µM)
Outline: (§2)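 Five library-drug doses in √10 steps were combined with a fixed anchor-drug dose, or a single drug was given alone, by pin tool to lung cancer cell lines in 1536-well plates the day after seeding. Nuclei were stained and counted after 5 days. Relative viability is the nuclei count in treated wells over that in vehicle wells, taken as the median of duplicate plates.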

BAM7 + Alpelisib = compound: CCOC1=CC=CC=C1N=NC2=C(NN(C2=O)C3=NC(=CS3)C4=CC=CC=C4)C [BAM7] + Cc1nc(NC(=O)N2CCC[C@H]2C(N)=O)sc1-c1ccnc(C(C)(C)C(F)(F)F)c1 [Alpelisib] (partner 2 µM)
Outline: as §2

Row | Cell Line | relative viability (BAM7; 0.5 µM) | relative viability (BAM7; 5 µM) | relative viability (BAM7; 15.81 µM) | relative viability (BAM7; 50 µM) | relative viability ([1]; 0.01 µM) | relative viability ([1]; 0.03162 µM) | relative viability ([1]; 0.1 µM) | relative viability ([1]; 0.3162 µM) | relative viability ([1]; 1 µM) | relative viability ([2]; first compound 0.01 µM) | relative viability ([2]; first compound 0.03162 µM) | relative viability ([2]; first compound 0.1 µM) | relative viability ([2]; first compound 0.3162 µM) | relative viability ([2]; first compound 1 µM) | relative viability (BAM7 + Alpelisib; first compound 0.5 µM) | relative viability (BAM7 + Alpelisib; first compound 5 µM) | relative viability (BAM7 + Alpelisib; first compound 15.81 µM) | relative viability (BAM7 + Alpelisib; first compound 50 µM)
1 | LU99A | 1.09 | 1.02 | 0.979 | 1.07 | 1.07 | 1.13 | 0.889 | 0.854 | 0.922 | 0.182 | 0.201 | 0.154 | 0.141 | 0.193 | 0.588 | 0.489 | 0.532 | 0.597
2 | LXF-289 | 1.06 | 1.07 | 1.01 | 0.929 | 1.03 | 0.991 | 1.03 | 0.972 | 1.11 | 0.922 | 0.95 | 0.925 | 0.84 | 0.938 | 1.1 | 1.11 | 1.02 | 1.07
3 | NCI-H23 | 1.21 | 1.06 | 1.04 | 1.06 | 0.918 | 0.939 | 0.878 | 0.902 | 0.852 | 0.647 | 0.642 | 0.58 | 0.579 | 0.611 | 0.743 | 0.782 | 0.656 | 0.723
4 | NCI-H322M | 0.922 | 0.96 | 1 | 0.991 | 0.887 | 0.763 | 0.839 | 0.827 | 0.828 | 0.634 | 0.571 | 0.556 | 0.568 | 0.571 | 0.859 | 0.816 | 0.803 | 0.801
5 | NCI-H358 | 0.96 | 1.19 | 0.942 | 0.912 | 0.905 | 1.01 | 0.935 | 0.912 | 0.913 | 0.231 | 0.192 | 0.176 | 0.182 | 0.166 | 0.953 | 0.837 | 0.859 | 0.85
6 | NCI-H441 | 1.16 | 1.06 | 1.1 | 1.44 | 0.927 | 1.05 | 1.04 | 0.948 | 0.99 | 0.295 | 0.251 | 0.228 | 0.234 | 0.272 | 0.809 | 0.932 | 0.793 | 0.682
7 | NCI-H460 | 1.02 | 0.989 | 0.895 | 0.969 | 0.977 | 0.983 | 0.983 | 0.998 | 0.949 | 0.0616 | 0.0628 | 0.063 | 0.0642 | 0.0565 | 0.514 | 0.468 | 0.473 | 0.403
8 | NCI-H520 | 1 | 1.02 | 1.01 | 1.09 | 0.905 | 0.921 | 0.779 | 0.753 | 0.665 | 0.565 | 0.686 | 0.577 | 0.523 | 0.352 | 1.03 | 1.01 | 0.947 | 0.865
9 | NCI-H596 | 0.965 | 1.08 | 0.957 | 1.07 | 0.947 | 0.962 | 0.752 | 0.936 | 1.06 | 0.48 |  | 0.443 | 0.47 | 0.5 | 0.461 | 0.463 | 0.425 | 0.492
10 | NCI-H647 | 1.02 | 1.07 | 0.894 | 1.07 | 0.982 | 0.995 | 0.952 | 0.918 | 0.981 | 0.196 | 0.168 | 0.179 | 0.163 | 0.142 | 1.27 | 1.32 | 1.05 | 1.17
11 | NCI-H650 | 0.944 | 1.1 | 0.955 | 1.22 | 0.788 | 0.854 | 0.854 | 0.998 | 0.832 | 0.957 | 0.862 | 0.988 | 1.02 | 0.919 | 1.03 | 1.33 | 1.04 | 1.08
12 | NCI-H661 | 0.984 | 1.03 | 0.965 | 1.03 | 1.01 | 1.03 | 0.976 | 1.01 | 0.972 | 0.903 | 0.937 | 0.938 | 0.713 | 0.926 | 0.736 | 0.7 | 0.699 | 0.699
13 | NCI-H838 | 1.03 | 1.04 | 0.946 | 1.06 | 1.01 | 1 | 0.993 | 0.846 | 0.963 | 0.248 | 0.251 | 0.238 | 0.225 | 0.255 | 1.06 | 1.05 | 0.989 | 1
14 | NCI-H1355 | 0.971 | 0.888 | 0.862 | 0.91 | 0.932 | 0.904 | 0.958 | 0.945 | 0.992 | 0.959 | 0.981 | 1.02 | 1.02 | 1.06 | 0.786 | 0.832 | 0.725 | 0.772
15 | NCI-H1395 | 0.884 | 1.01 | 0.944 | 1.1 | 0.848 | 0.693 | 0.762 | 0.737 | 0.705 | 0.745 | 0.811 | 0.793 | 0.647 | 0.769 | 1.23 | 1.04 | 1.04 | 1.24
16 | NCI-H1437 | 0.991 | 1.02 | 0.928 | 1.01 | 0.957 | 0.974 | 1.05 | 0.935 | 1.1 | 0.338 | 0.324 | 0.318 | 0.353 | 0.283 | 1.07 | 1 | 0.911 | 0.909
17 | NCI-H1563 | 0.967 | 1.04 | 0.995 | 1.02 | 1.01 | 0.984 | 0.96 | 0.901 | 0.89 | 0.76 | 0.674 | 0.678 | 0.702 | 0.854 | 0.991 | 0.864 | 0.864 | 0.929
